# Assay results from patent US20240139211A1, “METHODS AND COMPOSITIONS FOR TREATING AMYOTROPHIC LATERAL SCLEROSIS” (Amylyx Pharmaceuticals, Inc., priority 2022, published 2024).
# Like-named read-outs stand apart in the source and are kept apart here.
# Columns and labels:
# [1] = system: CYP1A2; assay: CYP1A2 enzyme activity induction in hepatocyte cultures
# [2] = system: CYP3A4 mRNA; assay: in vitro; conditions: human, hepatocyte cultures
# [3] = system: CYP2B6
# [4] = target: T1, OCT2 (Homo sapiens, UniProt O15244); assay: in vitro
# T1 sequence (O15244 1-555): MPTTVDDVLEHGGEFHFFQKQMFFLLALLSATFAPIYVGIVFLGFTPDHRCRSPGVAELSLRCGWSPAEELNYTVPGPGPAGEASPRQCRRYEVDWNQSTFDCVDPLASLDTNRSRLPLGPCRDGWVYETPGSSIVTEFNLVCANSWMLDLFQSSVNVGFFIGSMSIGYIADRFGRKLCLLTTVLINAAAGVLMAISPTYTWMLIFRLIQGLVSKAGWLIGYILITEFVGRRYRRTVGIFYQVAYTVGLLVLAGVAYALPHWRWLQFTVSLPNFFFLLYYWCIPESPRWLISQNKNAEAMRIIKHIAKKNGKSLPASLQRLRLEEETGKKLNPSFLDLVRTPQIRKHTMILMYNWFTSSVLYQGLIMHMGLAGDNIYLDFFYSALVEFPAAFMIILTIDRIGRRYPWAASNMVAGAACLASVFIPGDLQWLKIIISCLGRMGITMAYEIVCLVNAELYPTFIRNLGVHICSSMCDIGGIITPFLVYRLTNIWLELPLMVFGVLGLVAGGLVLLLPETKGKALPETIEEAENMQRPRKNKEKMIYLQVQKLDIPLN
# [5] = target: MATE2K (Homo sapiens, UniProt Q86VL8); assay: MATE2K inhibition, metformin uptake in transfected HEK cells; conditions: read-out: Estimated IC50 toward MATE2K; TUDCA and PB present simultaneously
# MATE2K, sequence (Q86VL8 1-566 isoform Q86VL8-3): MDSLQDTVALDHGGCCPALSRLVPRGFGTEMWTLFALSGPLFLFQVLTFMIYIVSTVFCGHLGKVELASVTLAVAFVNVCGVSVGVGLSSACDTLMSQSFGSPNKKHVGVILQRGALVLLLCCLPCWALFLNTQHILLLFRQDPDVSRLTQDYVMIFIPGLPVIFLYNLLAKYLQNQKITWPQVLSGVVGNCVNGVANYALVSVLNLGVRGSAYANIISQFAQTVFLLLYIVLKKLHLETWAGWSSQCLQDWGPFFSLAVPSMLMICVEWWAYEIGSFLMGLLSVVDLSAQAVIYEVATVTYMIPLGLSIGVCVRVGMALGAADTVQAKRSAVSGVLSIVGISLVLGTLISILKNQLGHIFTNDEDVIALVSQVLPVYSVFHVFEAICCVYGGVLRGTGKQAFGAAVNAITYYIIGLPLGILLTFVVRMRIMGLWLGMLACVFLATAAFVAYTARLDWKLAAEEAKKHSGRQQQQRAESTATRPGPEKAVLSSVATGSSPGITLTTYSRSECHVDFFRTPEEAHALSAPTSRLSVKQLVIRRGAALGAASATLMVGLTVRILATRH
# [6] = target: T2, CYPs in human liver microsomes (HLM) (Homo sapiens, UniProt P10632); assay: CYP reaction phenotyping in HLM with chemical inhibitors (% remaining); conditions: +NADPH +montelukast (CYP2C8)
# T2 sequence (P10632 1-490): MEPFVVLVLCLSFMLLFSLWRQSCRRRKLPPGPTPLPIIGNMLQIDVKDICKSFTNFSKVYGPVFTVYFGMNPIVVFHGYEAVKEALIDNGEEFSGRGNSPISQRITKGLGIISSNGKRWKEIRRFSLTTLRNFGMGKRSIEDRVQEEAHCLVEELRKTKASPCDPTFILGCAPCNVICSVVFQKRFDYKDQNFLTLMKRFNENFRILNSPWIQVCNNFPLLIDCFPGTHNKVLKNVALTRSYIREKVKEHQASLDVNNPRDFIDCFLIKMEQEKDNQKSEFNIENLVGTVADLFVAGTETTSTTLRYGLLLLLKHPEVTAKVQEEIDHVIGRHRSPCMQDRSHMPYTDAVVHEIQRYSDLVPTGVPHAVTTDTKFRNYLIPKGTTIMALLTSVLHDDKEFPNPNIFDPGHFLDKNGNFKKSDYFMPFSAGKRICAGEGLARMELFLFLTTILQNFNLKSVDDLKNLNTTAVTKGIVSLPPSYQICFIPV
# [7] = target: T3, CYPs in human liver microsomes (HLM) (Homo sapiens, UniProt P20813); assay: as above; conditions: +NADPH +thio-TEPA (CYP2B6)
# T3 sequence (P20813 1-491): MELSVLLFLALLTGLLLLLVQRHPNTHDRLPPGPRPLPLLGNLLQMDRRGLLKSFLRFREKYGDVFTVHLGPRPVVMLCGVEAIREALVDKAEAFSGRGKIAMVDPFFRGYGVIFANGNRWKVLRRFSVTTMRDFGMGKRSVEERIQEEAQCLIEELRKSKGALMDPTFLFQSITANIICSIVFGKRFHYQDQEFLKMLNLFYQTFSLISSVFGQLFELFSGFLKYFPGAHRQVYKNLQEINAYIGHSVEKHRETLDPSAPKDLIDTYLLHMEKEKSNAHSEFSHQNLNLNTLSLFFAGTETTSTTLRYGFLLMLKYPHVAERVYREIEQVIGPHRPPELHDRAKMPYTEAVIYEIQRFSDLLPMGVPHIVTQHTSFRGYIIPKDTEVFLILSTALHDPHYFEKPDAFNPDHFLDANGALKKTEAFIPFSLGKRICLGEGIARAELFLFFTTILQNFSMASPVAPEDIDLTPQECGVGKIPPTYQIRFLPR
# [8] = CYP reaction phenotyping, CYP control (negative control without CYP enzymes), % remaining; type: in vitro ADME; conditions: CYP Control 0.1 mg protein/mL, 5 μM TA, PB and TUDCA co-incubated
# Protocol: The percent remaining of TA was calculated using the following equation: […]
molecule,measurement,setting,value
"C[C@H](CCC(=O)NCC(=O)O)[C@H]1CC[C@H]2[C@@H]3[C@@H](O)C[C@@H]4C[C@H](O)CC[C@]4(C)[C@H]3CC[C@]12C [Glycoursodeoxycholic acid, glycoursodeoxycholic acid]",Maximum fold induction of CYP1A2 activity,"[1]; Donor 1, 72±2 h, three concentrations",5.93 fold
same,Maximum fold induction of CYP1A2 activity,[1]; Donor 2,3.08 fold
same,Maximum fold induction of CYP1A2 activity,[1]; Donor 3,9.43 fold
same,fold induction at 72 h,[2],2.44
same,Maximum fold induction of CYP2B6 activity,[3]; Donor 1,1.50 fold
same,Maximum fold induction of CYP2B6 activity,[3]; Donor 2,2.81 fold
same,Maximum fold induction of CYP2B6 activity,[3]; Donor 3,1.52 fold
"O=C(O)Cc1ccccc1 [Phenylacetic acid, phenylacetic acid]",potency estimated from few doses,[4],< 7.5 mM
tauroursodeoxycholic acid [TUDCA],IC50,[5],> 0.81 mM
same,% remaining of TA in HLM,[6]; 5 min,101%
same,% remaining of TA in HLM,[6]; 10 min,103%
same,% remaining of TA in HLM,[6]; 20 min,95.5%
same,% remaining of TA in HLM,[6]; 30 min,105%
same,% remaining of TA in HLM,[6]; 60 min,97.7%
same,% remaining of TA in HLM,[7]; 5 min,112%
same,% remaining of TA in HLM,[7]; 10 min,112%
same,% remaining of TA in HLM,[7]; 20 min,122%
same,% remaining of TA in HLM,[7]; 30 min,116%
same,% Remaining of TA,[8]; 0 min,100%
same,% Remaining of TA,[8]; 5 min,99.4%
same,% Remaining of TA,[8]; 10 min,97.9%
same,% Remaining of TA,[8]; 20 min,95.9%
same,% Remaining of TA,[8]; 30 min,93.7%
same,% Remaining of TA,[8]; 60 min,101%
